# According to patent US11524003B2, “Alpha-amino esters of hydroxypropylthiazolidine carboxamide derivative and salt form, crystal polymorph thereof” (ObsEva S.A., priority 2016, dated 2022):
# Columns and labels:
# [1] = test system: PGF2α-induced myometrial contractility; test: PGF2α-induced contractions of human myometrial biopsies (myograph); conditions: 6, 60, 600, 6000 nM
# Experimental: Experiments were performed using a DMT Myograph 800 MS (ADINSTRUMENTS™) in oxygenated Kreb's solution with ADI Powerlab software. Once regular contractions had been established for at least 20 minutes, baseline measurements of spontaneous contraction frequency were recorded. The measurement of spontaneous contraction frequency is represented on the x-axis as “Spon.” A DMSO control or compound II was then added to each myometrial sample at the indicated concentrations and the effects of control or compound II on contractile frequency were measured over the ensuing 10-minute period. This time point is represented on the x-axis as “Compound II.” The effects of compound II on contractile frequency in the presence of PGF2α were subsequently measured by challenging the myometrial tissue samples with increasing concentrations of PGF2α (1 nM, 10 nM, and 100 nM) at sequential 10-minute intervals. […] Once regular contractions had been established for at least 20 minutes, baseline measurements of spontaneous work done per contraction were recorded. The measurement of spontaneous work done per contraction is represented on the x-axis as “Spon.” A DMSO control or compound II was then added to each myometrial sample at the indicated concentrations and the effects of control or compound II on work done per contraction were measured over the ensuing 10-minute period. […]
# [2] = target: prostaglandin E receptor 2 (EP2) (Homo sapiens, UniProt P43116); conditions: FP over EP2
# prostaglandin E receptor 2 (EP2), sequence (P43116 whole entry): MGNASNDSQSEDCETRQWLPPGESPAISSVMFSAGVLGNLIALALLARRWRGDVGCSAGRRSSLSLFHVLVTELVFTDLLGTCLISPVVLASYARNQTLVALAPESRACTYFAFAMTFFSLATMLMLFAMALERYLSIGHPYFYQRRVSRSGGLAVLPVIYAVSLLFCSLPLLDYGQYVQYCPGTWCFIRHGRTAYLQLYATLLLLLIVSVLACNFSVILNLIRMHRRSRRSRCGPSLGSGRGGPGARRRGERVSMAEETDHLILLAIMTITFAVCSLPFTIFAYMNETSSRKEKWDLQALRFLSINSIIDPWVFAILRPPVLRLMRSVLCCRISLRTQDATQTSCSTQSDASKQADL
# Experimental: (§1) Selectivity of compound II was tested against all eight prostaglandin receptor subtypes.
# [3] = test system: other prostaglandin receptor subtypes; conditions: FP over other subtypes
# Experimental: as §1
smiles,measurement,setting,value
"O=C(N[C@@H](CCO)c1ccc(F)cc1)[C@@H]1SCCN1S(=O)(=O)c1ccc(-c2ccccc2)cc1 [Compound II, 3-([1,1′-biphenyl]-4-ylsulfonyl)-N-[1-(4-fluorophenyl)-3-hydroxypropyl]-1,3-thiazolidine-2-carboxamide]",Effect on PGF2α-induced myometrial contractility,[1],suppressing both PGF2α-induced and OT-induced myometrial contractility in a dose-dependent fashion
same,Selectivity versus prostaglandin E receptor 2 (EP2),[2],approximately 10 fold
same,Selectivity against other prostaglandin receptors,[3],higher than 100 fold
